Patent US20240208992A1, “MACROCYCLES AS CFTR MODULATORS” (Idorsia Pharmaceuticals Ltd, priority 2021, published 2024)

Biological target: human F508del-CFTR (Homo sapiens, UniProt P13569, DEL508-508)
Assay: F508del-CFTR cell surface expression (corrector activity), DiscoveRx ß-galactosidase complementation chemiluminescence assay in recombinant U2OS cell line;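 note: U2OS cells co-expressing ProLink-tagged F508del-CFTR and a membrane-anchored enzyme acceptor, where more surface CFTR restores β-galactosidase activity measured by chemiluminescence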
Settings: for EC50: EC50, F508del-CFTR cell surface expression; for Emax: U2OS
[1] = U2OS cell line, 16h compound incubation, geomean values
[2] = in relation to the Emax of the corrector lumacaftor (=100%), U2OS cell line, 16h compound incubation, arithmetic mean values
[3] = U2OS cells, 16h compound incubation, geomean values
[4] = in relation to Emax of corrector lumacaftor (=100%), arithmetic mean values
[5] = U2OS cells, 16h compound incubation, geomean of several measurements
[6] = in relation to the Emax of the corrector lumacaftor (=100%), U2OS cells, 16h compound incubation, arithmetic mean

Chain of human F508del-CFTR (P13569 with tags, fused parts or gaps DEL508-508): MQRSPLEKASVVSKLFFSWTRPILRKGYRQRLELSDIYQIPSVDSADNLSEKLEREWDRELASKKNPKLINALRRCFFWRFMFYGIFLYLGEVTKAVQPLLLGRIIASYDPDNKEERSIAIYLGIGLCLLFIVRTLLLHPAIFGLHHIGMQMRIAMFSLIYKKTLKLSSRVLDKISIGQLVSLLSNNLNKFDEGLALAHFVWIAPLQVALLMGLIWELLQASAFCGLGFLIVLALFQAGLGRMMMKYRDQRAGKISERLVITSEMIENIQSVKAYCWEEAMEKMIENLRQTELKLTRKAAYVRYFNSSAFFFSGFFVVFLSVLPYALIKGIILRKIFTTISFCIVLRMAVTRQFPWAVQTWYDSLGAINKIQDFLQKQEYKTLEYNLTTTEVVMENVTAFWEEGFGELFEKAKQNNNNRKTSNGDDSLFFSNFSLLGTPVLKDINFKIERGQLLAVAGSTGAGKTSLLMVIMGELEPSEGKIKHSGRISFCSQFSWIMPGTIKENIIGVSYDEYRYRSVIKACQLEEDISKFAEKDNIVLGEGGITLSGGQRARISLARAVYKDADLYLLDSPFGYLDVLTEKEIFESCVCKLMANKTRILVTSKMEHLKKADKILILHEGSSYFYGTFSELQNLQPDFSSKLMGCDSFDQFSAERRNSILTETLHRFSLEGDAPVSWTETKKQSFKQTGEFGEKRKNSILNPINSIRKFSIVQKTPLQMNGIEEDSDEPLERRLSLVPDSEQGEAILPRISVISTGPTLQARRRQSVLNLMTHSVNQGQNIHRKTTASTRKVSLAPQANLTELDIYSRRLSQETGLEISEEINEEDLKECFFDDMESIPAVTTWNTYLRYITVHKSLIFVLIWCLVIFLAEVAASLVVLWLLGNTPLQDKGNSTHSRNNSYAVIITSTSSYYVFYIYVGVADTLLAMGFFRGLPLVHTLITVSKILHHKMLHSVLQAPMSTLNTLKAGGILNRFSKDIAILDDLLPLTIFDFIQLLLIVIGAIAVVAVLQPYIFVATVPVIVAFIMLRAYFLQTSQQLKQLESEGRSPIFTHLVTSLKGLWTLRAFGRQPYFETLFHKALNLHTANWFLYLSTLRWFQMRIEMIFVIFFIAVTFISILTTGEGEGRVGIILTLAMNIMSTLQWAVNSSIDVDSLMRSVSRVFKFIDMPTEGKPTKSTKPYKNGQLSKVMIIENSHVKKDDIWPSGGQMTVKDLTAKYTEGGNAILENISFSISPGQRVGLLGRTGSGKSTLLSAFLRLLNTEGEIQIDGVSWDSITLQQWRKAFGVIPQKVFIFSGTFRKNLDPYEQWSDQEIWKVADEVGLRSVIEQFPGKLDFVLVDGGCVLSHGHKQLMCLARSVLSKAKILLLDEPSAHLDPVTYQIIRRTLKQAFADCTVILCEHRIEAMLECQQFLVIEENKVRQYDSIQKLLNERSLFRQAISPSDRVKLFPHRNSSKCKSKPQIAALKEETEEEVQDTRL

COc1cccc(CCNC(=O)[C@@H]2CC(=O)N(C)[C@@H](CC3CCCC3)C(=O)N(C[C@H]3CCCCO3)CC(=O)N[C@H](Cc3ccccc3)COc3cccc(OC)c3C(=O)N2)c1 [Example 313, (3R,9S,13S)-3-benzyl-9-(cyclopentylmethyl)-16-methoxy-N-(3-methoxyphenethyl)-10-methyl-5,8,11,15-tetraoxo-7-(((R)-tetrahydro-2H-pyran-2-yl)methyl)-2,3,4,5,6,7,8,9,10,11,12,13,14,15-tetradecahydrobenzo[p][1]oxa[4,7,10,14]tetraazacycloheptadecine-13-carboxamide]
EC50 [1]: 313 nM
Emax [2]: 119%

COc1cccc(CCNC(=O)[C@@H]2CC(=O)N(C)[C@@H](CC(C)C)C(=O)N3CCN(S(=O)(=O)c4ccc5oc(=O)[nH]c5c4)C[C@@H]3C(=O)N[C@H](Cc3ccccc3)COc3ccc4ccccc4c3C(=O)N2)c1 [Example 737, (4aR,7R,18S,22S)-7-benzyl-22-isobutyl-N-(3-methoxyphenethyl)-21-methyl-5,16,20,23-tetraoxo-3-((2-oxo-2,3-dihydrobenzo[d]oxazol-5-yl)sulfonyl)-2,3,4,4a,5,6,7,8,16,17,18,19,20,21,22,23-hexadecahydro-1H-naphtho[1,2-p]pyrazino[2,1-f][1]oxa[4,7,10,14]tetraazacycloheptadecine-18-carboxamide]
EC50 [3]: 665 nM
Emax [4]: 298%

[2H]C([2H])([2H])Oc1cccc2c1C(=O)N[C@H](C(=O)NCCc1cccc(OC)c1)CC(=O)N(C)[C@@H](CC(C)C)C(=O)N(CCC1CCCCC1)CC(=O)N[C@H](Cc1ccccc1)CO2 [Example 243, (3R,9S,13S)-3-benzyl-7-(2-cyclohexylethyl)-9-isobutyl-16-(methoxy-d3)-N-(3-methoxyphenethyl)-10-methyl-5,8,11,15-tetraoxo-2,3,4,5,6,7,8,9,10,11,12,13,14,15-tetradecahydrobenzo[p][1]oxa[4,7,10,14]tetraazacycloheptadecine-13-carboxamide]
EC50 [1]: 181 nM
Emax [2]: 232%

COc1cc(CCNC(=O)[C@@H]2CC(=O)N(C)[C@@H](CC(C)C)C(=O)N3CCCC[C@@H]3C(=O)N[C@H](Cc3ccccc3)COc3ccc4oc(C)nc4c3C(=O)N2)cc(OC)c1 [Example 368, (8S,12S,18aR,21R)-21-benzyl-N-(3,5-dimethoxyphenethyl)-12-isobutyl-4,11-dimethyl-6,10,13,19-tetraoxo-6,7,8,9,10,11,12,13,16,17,18,18a,19,20,21,22-hexadecahydro-15H-oxazolo[5′,4′:5,6]benzo[1,2-p]pyrido[2,1-f][1]oxa[4,7,10,14]tetraazacycloheptadecine-8-carboxamide]
EC50 [1]: 918 nM
Emax [2]: 147%

COc1cccc(CCNC(=O)[C@@H]2CC(=O)N(C)[C@@H](CC(C)C)C(=O)N(C[C@@H]3CCCCO3)CC(=O)N[C@H](Cc3ccccc3)COc3cccc(OC)c3C(=O)N2)c1 [Example 312, (3R,9S,13S)-3-benzyl-9-isobutyl-16-methoxy-N-(3-methoxyphenethyl)-10-methyl-5,8,11,15-tetraoxo-7-(((S)-tetrahydro-2H-pyran-2-yl)methyl)-2,3,4,5,6,7,8,9,10,11,12,13,14,15-tetradecahydrobenzo[p][1]oxa[4,7,10,14]tetraazacycloheptadecine-13-carboxamide]
EC50 [1]: 727 nM
Emax [2]: 111%

CC(C)C[C@H]1C(=O)N2CCOC[C@@H]2C(=O)N[C@H](Cc2ccccc2)COc2cnc3ccccc3c2C(=O)N[C@H](C(=O)NCCc2ccccc2)CC(=O)N1C [Example 58, (9S,13S,19aR,22R)-22-benzyl-13-isobutyl-12-methyl-7,11,14,20-tetraoxo-N-phenethyl-7,8,9,10,11,12,13,14,16,17,19,19a,20,21,22,23-hexadecahydro-[1,4]oxazino[3′,4′:6,7][1]oxa[4,7,10,14]tetraazacycloheptadecino[17,16-c]quinoline-9-carboxamide]
EC50 [1]: 759 nM
Emax [2]: 175%

COc1noc(CCNC(=O)[C@@H]2CC(=O)N(C)[C@@H](CC(C)C)C(=O)N3CCCC[C@@H]3C(=O)N[C@H](Cc3ccccc3)COc3ccc4ncc(F)cc4c3C(=O)N2)n1 [Example 821, (9S,13S,19aR,22R)-22-benzyl-5-fluoro-13-isobutyl-N-(2-(3-methoxy-1,2,4-oxadiazol-5-yl)ethyl)-12-methyl-7,11,14,20-tetraoxo-7,8,9,10,11,12,13,14,17,18,19,19a,20,21,22,23-hexadecahydro-16H-pyrido[2′,1′:6,7][1]oxa[4,7,10,14]tetraazacycloheptadecino[16,17-f]quinoline-9-carboxamide]
EC50 [5]: 200 nM
Emax [6]: 392%

COc1noc(CCNC(=O)[C@@H]2CC(=O)N(C)[C@@H](CC(C)C)C(=O)N(C)[C@H](Cc3nc(C(F)(F)F)no3)C(=O)N[C@H](Cc3ccccc3)COc3ccc4cnc(C)cc4c3C(=O)N2)n1 [Example 918, (3S,7S,10R,13R)-13-benzyl-7-isobutyl-N-(2-(3-methoxy-1,2,4-oxadiazol-5-yl)ethyl)-6,9,20-trimethyl-1,5,8,11-tetraoxo-10-((3-(trifluoromethyl)-1,2,4-oxadiazol-5-yl)methyl)-1,2,3,4,5,6,7,8,9,10,11,12,13,14-tetradecahydro-[1]oxa[4,7,10,14]tetraazacycloheptadecino[16,17-f]isoquinoline-3-carboxamide]
EC50 [5]: 42 nM
Emax [6]: 462%

COc1noc(CCNC(=O)[C@@H]2CC(=O)N(C)[C@@H](CC(C)C)C(=O)N(C)C3(CC(F)(F)C3)C(=O)N[C@H](Cc3ccccc3)COc3ccc4cnc(C)cc4c3C(=O)N2)n1 [Example 954, (3′S,7′S,13′R)-13′-benzyl-3,3-difluoro-7′-isobutyl-N-(2-(3-methoxy-1,2,4-oxadiazol-5-yl)ethyl)-6′,9′,20′-trimethyl-1′,5′,8′,11′-tetraoxo-2′,3′,4′,5′,6′,7′,8′,9′,11′,12′,13′,14′-dodecahydro-1′H-spiro[cyclobutane-1,10′-[1]oxa[4,7,10,14]tetraazacycloheptadecino[16,17-f]isoquinoline]-3′-carboxamide]
EC50 [5]: 382 nM
Emax [6]: 383%

COc1cccc(CCNC(=O)[C@@H]2CC(=O)N(C)[C@@H](CC(C)C)C(=O)N(CCC3CCCCC3)CC(=O)N[C@H](Cc3ccccc3)COc3ccc4ccccc4c3C(=O)N2)c1 [Example 268, (3S,7S,13R)-13-benzyl-9-(2-cyclohexylethyl)-7-isobutyl-N-(3-methoxyphenethyl)-6-methyl-1,5,8,11-tetraoxo-1,2,3,4,5,6,7,8,9,10,11,12,13,14-tetradecahydronaphtho[1,2-p][1]oxa[4,7,10,14]tetraazacycloheptadecine-3-carboxamide]
EC50 [1]: 100 nM
Emax [2]: 273%

COc1nc(C)cc2c1C(=O)N[C@H](C(=O)NCCc1cc(C)no1)CC(=O)N(C)[C@@H](CC(C)C)C(=O)N(C)[C@H](CCc1ccccc1)C(=O)N[C@H](Cc1ccccc1)CO2 [Example 874, (3R,6R,9S,13S)-3-benzyl-9-isobutyl-16-methoxy-7,10,18-trimethyl-N-(2-(3-methylisoxazol-5-yl)ethyl)-5,8,11,15-tetraoxo-6-phenethyl-2,3,4,5,6,7,8,9,10,11,12,13,14,15-tetradecahydropyrido[3,4-p][1]oxa[4,7,10,14]tetraazacycloheptadecine-13-carboxamide]
EC50 [5]: 66 nM
Emax [6]: 332%

Cc1cn(C)nc1CCNC(=O)[C@@H]1CC(=O)N(C)[C@@H](CC(C)C)C(=O)N2CCCC[C@@H]2C(=O)N[C@H](Cc2ccccc2)COc2cnc3ccccc3c2C(=O)N1 [Example 129, (9S,13S,19aR,22R)-22-benzyl-N-(2-(1,4-dimethyl-1H-pyrazol-3-yl)ethyl)-13-isobutyl-12-methyl-7,11,14,20-tetraoxo-7,8,9,10,11,12,13,14,17,18,19,19a,20,21,22,23-hexadecahydro-16H-pyrido[2′,11:6,7][1]oxa[4,7,10,14]tetraazacycloheptadecino[17,16-c]quinoline-9-carboxamide]
EC50 [1]: 406 nM
Emax [2]: 264%

COCCc1ccc(-c2noc(C[C@@H]3C(=O)N[C@H](Cc4ccccc4)COc4ccnc(OC)c4C(=O)N[C@H](C(=O)NCCc4cc(OC)no4)CC(=O)N(C)[C@@H](CC(C)C)C(=O)N3C)n2)cc1 [Example 868, (3R,6R,9S,13S)-3-benzyl-9-isobutyl-16-methoxy-6-((3-(4-(2-methoxyethyl)phenyl)-1,2,4-oxadiazol-5-yl)methyl)-N-(2-(3-methoxyisoxazol-5-yl)ethyl)-7,10-dimethyl-5,8,11,15-tetraoxo-2,3,4,5,6,7,8,9,10,11,12,13,14,15-tetradecahydropyrido[3,4-p][1]oxa[4,7,10,14]tetraazacycloheptadecine-13-carboxamide]
EC50 [5]: 18 nM
Emax [6]: 397%

Cc1cc2ccc3c(c2o1)C(=O)N[C@H](C(=O)NCCc1cc(C2CC2)no1)CC(=O)N(C)[C@@H](CC(C)C)C(=O)N(C)C1(CC1)C(=O)N[C@H](Cc1ccccc1)CO3 [Example 552, (8R,14S,18S)-8-benzyl-N-(2-(3-cyclopropylisoxazol-5-yl)ethyl)-14-isobutyl-2,12,15-trimethyl-10,13,16,20-tetraoxo-7,8,9,10,13,14,15,16,17,18,19,20-dodecahydro-12H-spiro[benzofuro[7,6-p][1]oxa[4,7,10,14]tetraazacycloheptadecine-11,1′-cyclopropane]-18-carboxamide]
EC50 [3]: 413 nM
Emax [4]: 358%
